Assay results published in ChEMBL document CHEMBL1201862, “PubChem BioAssay data set” (2004).
The source made the active and inactive calls.

Experiments:
Format in all cases: functional
[1] = molecular target: BDNF/NT-3 growth factors receptor (Homo sapiens, UniProt Q16620);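 further: NTRK2 measured as one member of a broad kinome-wide kinase profiling panel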
[2] = molecular target: Dual specificity protein kinase CLK4 (Homo sapiens, UniProt Q9HAZ1)
[3] = molecular target: High affinity nerve growth factor receptor (Homo sapiens, UniProt P04629);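 further: NTRK1 tested as one member of a kinome-wide profiling panel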
[4] = molecular target: Leukocyte tyrosine kinase receptor (Homo sapiens, UniProt P29376); assay: Navigating the Kinome. Panel member name: LTK
[5] = molecular target: Tyrosine-protein kinase receptor TYRO3 (Homo sapiens, UniProt Q06418);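 further: TYRO3 value obtained as one member of a kinome-wide profiling panel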
LIM domain kinase 1 = LIM domain kinase 1 (Homo sapiens, UniProt P53667); assay: Navigating the Kinome. Panel member name: LIMK1
[6] = molecular target: Vascular endothelial growth factor receptor 2 (Homo sapiens, UniProt P35968)
[7] = molecular target: Dual specificity tyrosine-phosphorylation-regulated kinase 1A (Homo sapiens, UniProt Q13627);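 further: measured against DYRK1A as one member of a broad kinome profiling panel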
[8] = molecular target: Inhibitor of nuclear factor kappa-B kinase subunit epsilon (Homo sapiens, UniProt Q14164); assay: Navigating the Kinome. Panel member name: IKBKE
Aurora kinase A = Aurora kinase A (Homo sapiens, UniProt O14965);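 further: value from the Navigating the Kinome kinase panel profiling, panel entry STK6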
[9] = molecular target: Protein kinase C theta type (Homo sapiens, UniProt Q04759); assay: Navigating the Kinome. Panel member name: PRKCQ
[10] = molecular target: Glycogen synthase kinase-3 alpha (Homo sapiens, UniProt P49840);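 further: GSK3A result taken from a broad kinome-wide kinase panel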
[11] = molecular target: Platelet-derived growth factor receptor beta (Homo sapiens, UniProt P09619);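 further: value comes from a kinome panel, with PDGFRB tested as one panel member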
[12] = molecular target: Macrophage colony-stimulating factor 1 receptor (Homo sapiens, UniProt P07333);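 further: value comes from the Navigating the Kinome screening panel, CSF1R member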
[13] = molecular target: Cyclin-dependent kinase 9 (Homo sapiens, UniProt P50750);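 further: value from the CDK9 entry of a kinome-spanning kinase panel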
[14] = molecular target: Dual specificity tyrosine-phosphorylation-regulated kinase 1B (Homo sapiens, UniProt Q9Y463); assay: Navigating the Kinome. Panel member name: DYRK1B
[15] = molecular target: Death-associated protein kinase 3 (Homo sapiens, UniProt O43293);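 further: measured as one member of a kinome-wide profiling panel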
[16] = molecular target: cAMP-dependent protein kinase catalytic subunit alpha (Homo sapiens, UniProt P17612)
[17] = molecular target: Serine/threonine-protein kinase TAO1 (Homo sapiens, UniProt Q7L7X3)
[18] = molecular target: Serine/threonine-protein kinase Chk1 (Homo sapiens, UniProt O14757);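 further: measured as one member of a kinome-wide kinase profiling panel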
[19] = molecular target: Casein kinase I isoform alpha (Homo sapiens, UniProt P48729)
Sequence of Casein kinase I isoform alpha (P48729 whole entry, canonical isoform): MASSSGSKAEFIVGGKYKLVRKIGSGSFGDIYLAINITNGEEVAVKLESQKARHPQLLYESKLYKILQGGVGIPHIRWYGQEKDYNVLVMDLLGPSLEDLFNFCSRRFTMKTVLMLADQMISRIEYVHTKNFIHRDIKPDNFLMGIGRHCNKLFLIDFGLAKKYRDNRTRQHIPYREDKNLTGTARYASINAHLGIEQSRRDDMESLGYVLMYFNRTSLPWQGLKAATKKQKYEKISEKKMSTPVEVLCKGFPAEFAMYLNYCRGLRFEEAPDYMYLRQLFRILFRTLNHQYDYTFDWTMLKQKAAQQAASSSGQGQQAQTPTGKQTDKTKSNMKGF

Sequence of Dual specificity protein kinase CLK4 (Q9HAZ1 whole entry): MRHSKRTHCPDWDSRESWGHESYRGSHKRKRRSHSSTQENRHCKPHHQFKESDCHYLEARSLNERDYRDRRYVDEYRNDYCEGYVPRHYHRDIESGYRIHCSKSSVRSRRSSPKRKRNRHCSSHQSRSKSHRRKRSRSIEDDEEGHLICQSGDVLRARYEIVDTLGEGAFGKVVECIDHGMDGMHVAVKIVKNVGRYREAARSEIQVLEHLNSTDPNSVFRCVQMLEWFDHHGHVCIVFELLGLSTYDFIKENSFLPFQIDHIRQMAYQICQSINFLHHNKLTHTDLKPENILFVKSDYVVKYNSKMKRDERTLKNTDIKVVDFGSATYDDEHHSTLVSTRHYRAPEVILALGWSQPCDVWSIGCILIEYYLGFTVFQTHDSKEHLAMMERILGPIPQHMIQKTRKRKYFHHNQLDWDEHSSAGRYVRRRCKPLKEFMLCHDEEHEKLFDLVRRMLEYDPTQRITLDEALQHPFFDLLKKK
Sequence of Macrophage colony-stimulating factor 1 receptor (P07333 whole entry): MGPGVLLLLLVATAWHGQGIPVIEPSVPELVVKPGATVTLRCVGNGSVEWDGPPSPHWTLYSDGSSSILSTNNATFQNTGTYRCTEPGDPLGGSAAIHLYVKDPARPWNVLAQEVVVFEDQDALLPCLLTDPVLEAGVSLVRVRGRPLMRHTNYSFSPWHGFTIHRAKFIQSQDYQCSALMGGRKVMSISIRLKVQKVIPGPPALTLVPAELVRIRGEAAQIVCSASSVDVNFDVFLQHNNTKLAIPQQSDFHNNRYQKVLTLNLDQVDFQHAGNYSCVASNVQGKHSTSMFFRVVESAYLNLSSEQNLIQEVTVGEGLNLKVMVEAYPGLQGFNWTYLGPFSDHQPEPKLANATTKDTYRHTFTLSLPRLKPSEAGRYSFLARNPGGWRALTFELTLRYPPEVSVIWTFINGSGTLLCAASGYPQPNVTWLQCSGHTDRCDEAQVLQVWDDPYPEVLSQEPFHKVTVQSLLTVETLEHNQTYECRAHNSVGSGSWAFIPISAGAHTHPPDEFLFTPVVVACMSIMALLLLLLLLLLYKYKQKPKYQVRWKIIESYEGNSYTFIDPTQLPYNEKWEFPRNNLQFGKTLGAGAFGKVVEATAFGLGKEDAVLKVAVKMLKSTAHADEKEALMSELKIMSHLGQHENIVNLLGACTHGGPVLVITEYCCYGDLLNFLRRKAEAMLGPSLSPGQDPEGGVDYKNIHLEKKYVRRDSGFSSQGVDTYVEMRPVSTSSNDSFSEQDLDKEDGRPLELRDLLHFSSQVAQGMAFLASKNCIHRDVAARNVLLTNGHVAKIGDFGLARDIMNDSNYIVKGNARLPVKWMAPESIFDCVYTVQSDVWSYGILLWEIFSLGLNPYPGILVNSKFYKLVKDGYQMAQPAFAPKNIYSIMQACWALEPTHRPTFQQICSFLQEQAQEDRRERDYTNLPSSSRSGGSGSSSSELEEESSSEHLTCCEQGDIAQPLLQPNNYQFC
Sequence of Cyclin-dependent kinase 9 (P50750 whole entry): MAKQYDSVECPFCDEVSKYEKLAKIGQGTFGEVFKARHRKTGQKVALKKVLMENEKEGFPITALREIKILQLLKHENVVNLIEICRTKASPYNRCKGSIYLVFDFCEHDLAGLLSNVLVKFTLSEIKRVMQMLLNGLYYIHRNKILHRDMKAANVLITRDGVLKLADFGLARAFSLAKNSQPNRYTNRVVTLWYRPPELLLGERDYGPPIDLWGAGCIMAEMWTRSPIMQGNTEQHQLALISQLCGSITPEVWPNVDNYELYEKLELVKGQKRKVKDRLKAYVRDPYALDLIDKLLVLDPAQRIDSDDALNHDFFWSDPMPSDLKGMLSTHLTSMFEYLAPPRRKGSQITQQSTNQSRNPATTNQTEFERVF
Sequence of Inhibitor of nuclear factor kappa-B kinase subunit epsilon (Q14164 whole entry): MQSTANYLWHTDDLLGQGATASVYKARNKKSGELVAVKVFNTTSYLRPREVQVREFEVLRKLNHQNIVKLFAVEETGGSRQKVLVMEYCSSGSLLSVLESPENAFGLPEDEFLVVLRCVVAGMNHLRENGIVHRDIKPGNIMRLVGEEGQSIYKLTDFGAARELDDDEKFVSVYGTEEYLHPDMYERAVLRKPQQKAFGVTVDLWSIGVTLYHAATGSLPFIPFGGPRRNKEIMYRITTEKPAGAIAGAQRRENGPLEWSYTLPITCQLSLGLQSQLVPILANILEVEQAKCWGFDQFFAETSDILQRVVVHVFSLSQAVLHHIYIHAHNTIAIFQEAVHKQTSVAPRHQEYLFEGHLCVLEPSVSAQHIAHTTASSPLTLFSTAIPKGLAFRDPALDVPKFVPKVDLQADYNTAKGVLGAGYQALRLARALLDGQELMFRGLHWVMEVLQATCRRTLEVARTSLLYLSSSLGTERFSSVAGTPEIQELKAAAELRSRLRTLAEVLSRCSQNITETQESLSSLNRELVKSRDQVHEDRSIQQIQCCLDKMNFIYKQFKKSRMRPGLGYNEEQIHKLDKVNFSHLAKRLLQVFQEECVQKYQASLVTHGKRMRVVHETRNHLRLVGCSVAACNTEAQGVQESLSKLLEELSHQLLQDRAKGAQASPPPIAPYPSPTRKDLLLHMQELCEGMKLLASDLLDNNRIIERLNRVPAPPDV
Sequence of Death-associated protein kinase 3 (O43293 whole entry): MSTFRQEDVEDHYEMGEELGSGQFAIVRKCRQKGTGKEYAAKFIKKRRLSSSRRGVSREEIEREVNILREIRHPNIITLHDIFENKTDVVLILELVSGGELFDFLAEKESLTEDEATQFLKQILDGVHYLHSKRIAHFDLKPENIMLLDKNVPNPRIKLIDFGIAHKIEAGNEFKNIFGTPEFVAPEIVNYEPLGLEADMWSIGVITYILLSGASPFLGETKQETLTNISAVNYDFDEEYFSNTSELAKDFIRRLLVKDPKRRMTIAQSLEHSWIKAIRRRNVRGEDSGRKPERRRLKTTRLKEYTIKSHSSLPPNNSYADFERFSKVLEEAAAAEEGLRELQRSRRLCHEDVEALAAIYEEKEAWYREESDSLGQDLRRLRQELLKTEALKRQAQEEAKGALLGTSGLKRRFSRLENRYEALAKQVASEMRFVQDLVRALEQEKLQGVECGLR
Sequence of BDNF/NT-3 growth factors receptor (Q16620 whole entry): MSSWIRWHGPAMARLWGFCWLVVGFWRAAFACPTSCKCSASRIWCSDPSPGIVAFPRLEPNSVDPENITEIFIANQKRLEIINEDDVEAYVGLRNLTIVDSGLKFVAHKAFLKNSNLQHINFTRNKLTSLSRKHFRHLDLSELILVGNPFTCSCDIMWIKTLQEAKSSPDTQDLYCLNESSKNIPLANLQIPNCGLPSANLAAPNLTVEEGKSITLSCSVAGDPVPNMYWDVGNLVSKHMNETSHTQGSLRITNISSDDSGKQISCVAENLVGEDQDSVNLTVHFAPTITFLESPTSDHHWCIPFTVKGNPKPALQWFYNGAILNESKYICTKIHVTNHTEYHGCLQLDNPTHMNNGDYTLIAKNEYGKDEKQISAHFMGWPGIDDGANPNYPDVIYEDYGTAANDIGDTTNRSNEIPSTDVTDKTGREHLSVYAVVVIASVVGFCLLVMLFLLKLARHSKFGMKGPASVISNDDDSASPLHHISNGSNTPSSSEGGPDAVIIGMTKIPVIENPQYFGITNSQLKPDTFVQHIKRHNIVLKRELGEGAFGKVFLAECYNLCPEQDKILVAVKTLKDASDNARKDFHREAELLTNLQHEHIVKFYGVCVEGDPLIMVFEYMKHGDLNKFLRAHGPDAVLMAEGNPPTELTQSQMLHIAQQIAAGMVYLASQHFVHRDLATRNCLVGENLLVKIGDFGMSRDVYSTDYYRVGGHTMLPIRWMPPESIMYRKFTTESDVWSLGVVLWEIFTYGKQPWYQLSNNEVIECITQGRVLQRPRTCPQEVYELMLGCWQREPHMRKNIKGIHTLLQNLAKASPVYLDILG
Sequence of Tyrosine-protein kinase receptor TYRO3 (Q06418 whole entry, the tested form may be a part): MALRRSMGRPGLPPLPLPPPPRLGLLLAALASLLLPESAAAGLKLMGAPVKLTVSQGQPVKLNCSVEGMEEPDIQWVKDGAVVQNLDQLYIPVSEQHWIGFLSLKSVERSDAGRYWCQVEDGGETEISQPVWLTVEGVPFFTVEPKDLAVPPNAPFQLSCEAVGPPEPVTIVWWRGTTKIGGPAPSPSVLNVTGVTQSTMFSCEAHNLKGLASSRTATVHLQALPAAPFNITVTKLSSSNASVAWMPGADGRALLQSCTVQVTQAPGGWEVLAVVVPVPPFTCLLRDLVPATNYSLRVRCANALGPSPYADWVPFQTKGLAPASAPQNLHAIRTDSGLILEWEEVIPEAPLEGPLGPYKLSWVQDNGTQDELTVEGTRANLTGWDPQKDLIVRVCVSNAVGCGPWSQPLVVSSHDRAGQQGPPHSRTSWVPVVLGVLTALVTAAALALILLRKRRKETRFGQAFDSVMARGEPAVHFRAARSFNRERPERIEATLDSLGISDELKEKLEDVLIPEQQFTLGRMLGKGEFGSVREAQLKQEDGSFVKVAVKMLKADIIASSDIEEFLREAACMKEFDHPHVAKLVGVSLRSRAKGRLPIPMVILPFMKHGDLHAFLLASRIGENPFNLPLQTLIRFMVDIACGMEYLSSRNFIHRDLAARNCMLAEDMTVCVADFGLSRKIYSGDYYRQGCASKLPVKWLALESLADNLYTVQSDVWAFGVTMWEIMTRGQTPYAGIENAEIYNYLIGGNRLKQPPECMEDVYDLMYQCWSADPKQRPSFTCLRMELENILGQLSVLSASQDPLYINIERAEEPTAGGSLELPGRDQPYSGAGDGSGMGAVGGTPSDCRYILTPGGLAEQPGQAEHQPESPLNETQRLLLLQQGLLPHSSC

Cn1c(N)nc2sccc21
Ki [1]: 63.1 µM (active) | Ki [2]: 20 µM (active) | Ki [3]: 50.1 µM (active) | Ki [4]: 79.4 µM (active) | Ki [5]: 79.4 µM (active)

CC(=O)n1ncc2cc(N)ccc21
Ki (LIM domain kinase 1): 3.16 µM (active) | Ki [6]: > 100 µM (inactive) | Ki [7]: > 79.4 µM (inactive) | Ki [8]: 79.4 µM (active) | Ki (Aurora kinase A): 63.1 µM (active) | Ki [9]: > 100 µM (inactive) | Ki [10]: 25.1 µM (active) | Ki [11]: > 79.4 µM (inactive) | Ki [12]: > 100 µM (inactive) | Ki [2]: 0.2 µM (active) | Ki [13]: > 63.1 µM (inactive) | Ki [14]: 0.631 µM (active) | Ki [15]: 5.01 µM (active) | Ki [16]: > 50.1 µM (inactive) | Ki [17]: 6.31 µM (active) | Ki [18]: 2 µM (active) | Ki [19]: 20 µM (active)
